# According to ChEMBL document CHEMBL1201862, “PubChem BioAssay data set” (2004):
#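 Grown in 96-well plates, cells were treated for 48 hours with each compound at five concentrations. Insufficient inhibition: endpoint recorded as highest concentration tested. The concentration for 50% growth inhibition is given as GI50.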 Active and inactive are the calls of the source. No stated cut-off is given here; in the data, active = GI50 up to about 1.1 µM and inactive = higher.
# Legend:
# Experiment in all cases: DTP human tumour cell line panel, 48 h
# SNB-19 = test system: SNB-19
# A549 = test system: A549
# A498 = test system: A498
# HCT-116 = test system: HCT-116
# NCI-H522 = test system: NCI-H522
# 786-0 = test system: 786-0
# UO-31 = test system: UO-31
# SW-620 = test system: SW-620
# TK-10 = test system: TK-10
# HCT-15 = test system: HCT-15
# CAKI-1 = test system: CAKI-1
# NCI-H23 = test system: NCI-H23
# T47D = test system: T47D
# LOX IMVI = test system: LOX IMVI
# SNB-75 = test system: SNB-75
# BT-549 = test system: BT-549
# UACC-257 = test system: UACC-257
# SK-OV-3 = test system: SK-OV-3
# SF-295 = test system: SF-295
# MDA-MB-231 = test system: MDA-MB-231
Structure (SMILES),GI50 (SNB-19),GI50 (A549),GI50 (A498),GI50 (HCT-116),GI50 (NCI-H522),GI50 (786-0),GI50 (UO-31),GI50 (SW-620),GI50 (TK-10),GI50 (HCT-15) [µM],GI50 (CAKI-1),GI50 (NCI-H23),GI50 (T47D),GI50 (LOX IMVI),GI50 (SNB-75),GI50 (BT-549),GI50 (UACC-257),GI50 (SK-OV-3),GI50 (SF-295),GI50 (MDA-MB-231)
CCC1=NC(C(F)(F)F)(C(F)(F)F)N=C(/N=C(/N)N(C)C(C(C)C)P(=O)(OC(C)C)OC(C)C)O1 (centres undefined),> 100 µM (inactive),> 100 µM (inactive),> 100 µM (inactive),> 100 µM (inactive),> 100 µM (inactive),> 100 µM (inactive),> 100 µM (inactive),> 100 µM (inactive),> 100 µM (inactive),> 100,> 100 µM (inactive),> 100 µM (inactive),> 100 µM (inactive),> 100 µM (inactive),> 100 µM (inactive),> 100 µM (inactive),> 100 µM (inactive),> 100 µM (inactive),> 100 µM (inactive),> 100 µM (inactive)
NNC(=O)CC(=O)Nc1ccc(S(=O)(=O)c2ccc(NC(=O)CC(=O)NN)cc2)cc1,> 100 µM (inactive),> 100 µM (inactive),> 100 µM (inactive),> 100 µM (inactive),> 100 µM (inactive),> 100 µM (inactive),> 100 µM (inactive),> 100 µM (inactive),> 100 µM (inactive),> 100,> 100 µM (inactive),> 100 µM (inactive),> 100 µM (inactive),–,> 100 µM (inactive),> 100 µM (inactive),> 100 µM (inactive),> 100 µM (inactive),> 100 µM (inactive),> 100 µM (inactive)
CC(=O)O[C@H](C[C@@H](C)[C@H]1C(=O)[C@H](O)[C@@]2(C)C3CC[C@H]4C(C)(C)[C@@H](OC5OCC(O)C(O)C5O)CC[C@@]45C[C@@]35CC[C@]12C)[C@@H]1OC1(C)C (some centres undefined),20.1 µM (inactive),27.9 µM (inactive),15.9 µM (inactive),18.1 µM (inactive),17.4 µM (inactive),16.6 µM (inactive),22.9 µM (inactive),32.4 µM (inactive),16.3 µM (inactive),24.6,16.8 µM (inactive),23.9 µM (inactive),17.4 µM (inactive),30.3 µM (inactive),12.1 µM (inactive),21.9 µM (inactive),18.6 µM (inactive),12.7 µM (inactive),16.3 µM (inactive),16.1 µM (inactive)
NC(=O)NC(=O)c1ccc(NC(=O)CBr)cc1,21.9 µM (inactive),14.1 µM (inactive),14.3 µM (inactive),0.83 µM (active),0.128 µM (active),0.278 µM (active),1.42 µM (inactive),0.344 µM (active),1.31 µM (inactive),1.8,0.679 µM (active),2.06 µM (inactive),1.67 µM (inactive),0.558 µM (active),1.81 µM (inactive),2.1 µM (inactive),1.94 µM (inactive),3.27 µM (inactive),13.6 µM (inactive),2.49 µM (inactive)
C/C=C1/CC(C)C(C)(O)C(=O)OCC2C(O)CN3CCC(OC1=O)C23 (centres undefined),> 100 µM (inactive),> 100 µM (inactive),> 100 µM (inactive),> 100 µM (inactive),68.9 µM (inactive),> 100 µM (inactive),–,> 100 µM (inactive),> 100 µM (inactive),> 100,> 100 µM (inactive),> 100 µM (inactive),> 100 µM (inactive),> 100 µM (inactive),> 100 µM (inactive),> 100 µM (inactive),> 100 µM (inactive),> 100 µM (inactive),> 100 µM (inactive),> 100 µM (inactive)
COc1cc2c(cc1O)-c1c(cnn1-c1ccc([N+](=O)[O-])cc1)CCC2,27.7 µM (inactive),12.7 µM (inactive),23 µM (inactive),18.3 µM (inactive),11.6 µM (inactive),12.9 µM (inactive),–,23.3 µM (inactive),8.83 µM (inactive),14,10.8 µM (inactive),13.8 µM (inactive),19.8 µM (inactive),12.6 µM (inactive),22.9 µM (inactive),21.6 µM (inactive),15.5 µM (inactive),44.3 µM (inactive),10.9 µM (inactive),12 µM (inactive)
O=C1/C(=C/c2ccc(Br)s2)NC(=S)N1CN1CCCCC1,46.9 µM (inactive),–,22.9 µM (inactive),31 µM (inactive),23.3 µM (inactive),36.4 µM (inactive),24.5 µM (inactive),33 µM (inactive),34.5 µM (inactive),27.9,32.4 µM (inactive),32.4 µM (inactive),30.5 µM (inactive),21.5 µM (inactive),44.6 µM (inactive),25.9 µM (inactive),33.3 µM (inactive),–,30.5 µM (inactive),62.4 µM (inactive)
N=C(/C=C/c1ccc(-c2cn3cc(/C=C/C(=N)N4CCCC4)ccc3n2)cc1)N1CCCC1,> 100 µM (inactive),61.9 µM (inactive),> 100 µM (inactive),90.8 µM (inactive),31 µM (inactive),85.5 µM (inactive),> 100 µM (inactive),> 100 µM (inactive),> 100 µM (inactive),> 100,> 100 µM (inactive),> 100 µM (inactive),> 100 µM (inactive),–,> 100 µM (inactive),> 100 µM (inactive),78.7 µM (inactive),> 100 µM (inactive),> 100 µM (inactive),> 100 µM (inactive)
O=C(/C=C1\Nc2ccccc2N\C1=C/C(=O)c1ccc(F)cc1)c1ccc(F)cc1,> 100 µM (inactive),> 100 µM (inactive),> 100 µM (inactive),> 100 µM (inactive),> 100 µM (inactive),61.4 µM (inactive),> 100 µM (inactive),> 100 µM (inactive),> 100 µM (inactive),> 100,> 100 µM (inactive),> 100 µM (inactive),63 µM (inactive),> 100 µM (inactive),> 100 µM (inactive),> 100 µM (inactive),> 100 µM (inactive),–,–,> 100 µM (inactive)
CCC(CC)(CO)CNc1cc(Cl)nc(N)n1,–,> 100 µM (inactive),> 100 µM (inactive),> 100 µM (inactive),> 100 µM (inactive),> 100 µM (inactive),> 100 µM (inactive),> 100 µM (inactive),> 100 µM (inactive),> 100,> 100 µM (inactive),> 100 µM (inactive),45.6 µM (inactive),> 100 µM (inactive),> 100 µM (inactive),> 100 µM (inactive),> 100 µM (inactive),> 100 µM (inactive),> 100 µM (inactive),> 100 µM (inactive)
C=C1CCC2CC1[C@@H](C(=O)c1c[nH]c3ccccc13)NC2(C)C (some centres undefined),–,> 37.5 µM (inactive),> 37.5 µM (inactive),> 37.5 µM (inactive),> 37.5 µM (inactive),> 37.5 µM (inactive),29.5 µM (inactive),> 37.5 µM (inactive),> 37.5 µM (inactive),> 37.5,8.51 µM (inactive),> 37.5 µM (inactive),30.6 µM (inactive),> 37.5 µM (inactive),> 37.5 µM (inactive),> 37.5 µM (inactive),> 37.5 µM (inactive),–,> 37.5 µM (inactive),> 37.5 µM (inactive)
